Experimental data: patent publication US20240174744A1, “METHODS OF TREATMENT USING PROTEIN BINDERS TO IRHOM2 EPITOPES” (SCIRHOM GMBH, priority 2021, published 2024)

Tested on: PMA-induced release of HB-EGF from PBMCs from healthy donors
Test: ELISA-based HB-EGF release assay, PBMCs from healthy donors
Assay type: cell-based
Settings: Homo sapiens, PBMC; recombinant murine antibodies 1 μg/ml; Batimastat 10 μM; PMA 25 ng/ml, 6 hours
Method: In the following study, ELISA-based HB-EGF release assays were performed to analyze the inhibitory effects of the antibodies of the present disclosure on PMA-induced release of endogenous HB-EGF from primary human material obtained from healthy donors using peripheral blood mononuclear cells (PBMCs).
In brief, on day 1, Nunc black MaxiSorp® 96-well plates (Thermo Fisher Scientific, USA) were coated overnight with 100 μl per well of mouse anti-human HB-EGF capture antibody (provided as part of the DuoSet ELISA kit) at 4 μg/ml TBS at 4° C. On day 2, the capture antibody solution was removed and MaxiSorp® plates were blocked with 300 μl per well of TBS, 1% BSA at room temperature for 3 hours. […] Using an infinite M1000 (Tecan Group, Switzerland) microplate reader, the fluorescence of each well was collected at an excitation wavelength of 435 nm and an emission wavelength of 555 nm.

CNC(=O)[C@H](Cc1ccccc1)NC(=O)[C@H](CC(C)C)[C@H](CSc1cccs1)C(=O)NO [Batimastat]
inhibition at 10 µM: 94.9%
